# Toxic doses and inconclusive results are not listed.
# Test system: L1210 leukemia ip in BDF1 mice, survival T/C
# Assay: NCI In Vivo Anticancer Drug Screen. Data for tumor model L1210 Leukemia (intraperitoneal) in B6D2F1 (BDF1) mice
# Settings: endpoint: mean survival time, higher = longer survival
# Summary of the method: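 Each compound was tested against a transplantable tumor grown in mice. The endpoint was survival, with treated animals benchmarked against vehicle controls as a simple ratio.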
# [1] = dose: 25.0 mg/kg/injection, schedule: Q01DX009 (ip), vehicle: saline with Tween-80
# [2] = dose: 50.0 mg/kg/injection, schedule: Q01DX009 (ip), vehicle: saline with Tween-80
# [3] = dose: 100.0 mg/kg/injection, schedule: Q01DX009 (ip), vehicle: saline
# [4] = dose: 100.0 mg/kg/injection, schedule: Q04DX003 (ip), vehicle: saline
# [5] = dose: 200.0 mg/kg/injection, schedule: Q01DX009 (ip), vehicle: saline
# [6] = dose: 200.0 mg/kg/injection, schedule: Q04DX003 (ip), vehicle: saline
# [7] = dose: 400.0 mg/kg/injection, schedule: Q04DX003 (ip), vehicle: saline
# [8] = dose: 100.0 mg/kg/injection, schedule: Q04DX002 (ip), vehicle: Klucel (hydroxypropylcellulose) (HPC)
# [9] = dose: 200.0 mg/kg/injection, schedule: Q04DX002 (ip), vehicle: Klucel (hydroxypropylcellulose) (HPC)
# [10] = dose: 400.0 mg/kg/injection, schedule: Q04DX002 (ip), vehicle: Klucel (hydroxypropylcellulose) (HPC)
# [11] = dose: 100.0 mg/kg/injection, schedule: Q01DX001 (ip), vehicle: saline
# [12] = dose: 200.0 mg/kg/injection, schedule: Q01DX001 (ip), vehicle: saline
# [13] = dose: 400.0 mg/kg/injection, schedule: Q01DX001 (ip), vehicle: saline
# [14] = dose: 12.5 mg/kg/injection, schedule: Q04DX003 (ip), vehicle: saline
# [15] = dose: 100.0 mg/kg/injection, schedule: Q01DX001 (ip), vehicle: Klucel (hydroxypropylcellulose) (HPC)
# [16] = dose: 200.0 mg/kg/injection, schedule: Q01DX001 (ip), vehicle: Klucel (hydroxypropylcellulose) (HPC)
# [17] = dose: 100.0 mg/kg/injection, schedule: Q04DX003 (ip), vehicle: saline with Tween-80
# [18] = dose: 200.0 mg/kg/injection, schedule: Q04DX003 (ip), vehicle: saline with Tween-80
# [19] = dose: 400.0 mg/kg/injection, schedule: Q04DX003 (ip), vehicle: saline with Tween-80
# [20] = dose: 50.0 mg/kg/injection, schedule: Q01DX009 (ip), vehicle: saline
# [21] = dose: 50.0 mg/kg/injection, schedule: Q04DX003 (ip), vehicle: saline
# [22] = dose: 15.0 mg/kg/injection, schedule: Q01DX Z (ip), vehicle: carboxymethylcellulose (CMC)
# [23] = dose: 30.0 mg/kg/injection, schedule: Q01DX Z (ip), vehicle: carboxymethylcellulose (CMC)
# [24] = dose: 100.0 mg/kg/injection, schedule: Q01DX001 (ip), vehicle: carboxymethylcellulose (CMC)
# [25] = dose: 200.0 mg/kg/injection, schedule: Q01DX001 (ip), vehicle: carboxymethylcellulose (CMC)
# [26] = dose: 400.0 mg/kg/injection, schedule: Q01DX001 (ip), vehicle: carboxymethylcellulose (CMC)
# [27] = dose: 100.0 mg/kg/injection, schedule: Q04DX003 (ip), vehicle: Klucel (hydroxypropylcellulose) (HPC)
smiles,measurement,setting,value
C=CCc1ccc(OC(C)OCCOCCOCC)c(OC)c1 (stereo not given),T/C,"dose: 100.0 mg/kg/injection, schedule: Q04DX002 (ip), vehicle: saline",92 % of control
same,T/C,"dose: 200.0 mg/kg/injection, schedule: Q04DX002 (ip), vehicle: saline",96 % of control
same,T/C,"dose: 400.0 mg/kg/injection, schedule: Q04DX002 (ip), vehicle: saline",101 % of control
Cn1nc(N)c2ncc(C(Cl)(Cl)Cl)nc21,T/C,[1],108 % of control
same,T/C,[2],111 % of control
Nc1ccc(Nc2ccccc2)c(S(=O)(=O)O)c1,T/C,[3],107 % of control
same,T/C,[4],105 % of control
same,T/C,[5],107 % of control
same,T/C,[6],92 % of control
same,T/C,"dose: 400.0 mg/kg/injection, schedule: Q01DX009 (ip), vehicle: saline",110 % of control
same,T/C,[7],95 % of control
O=C(Cc1ccccc1)Cc1ccccc1,T/C,"dose: 25.0 mg/kg/injection, schedule: Q01DX009 (ip), vehicle: water",104 % of control
same,T/C,"dose: 50.0 mg/kg/injection, schedule: Q01DX009 (ip), vehicle: water",115 % of control
same,T/C,"dose: 100.0 mg/kg/injection, schedule: Q01DX009 (ip), vehicle: water",104 % of control
same,T/C,"dose: 200.0 mg/kg/injection, schedule: Q01DX009 (ip), vehicle: water",94 % of control
same,T/C,"dose: 400.0 mg/kg/injection, schedule: Q01DX009 (ip), vehicle: water",94 % of control
N#Cc1cccc(C(Br)S(=O)(=O)c2ccccc2)c1 (stereo not given),T/C,[8],116 % of control
same,T/C,[9],111 % of control
same,T/C,[10],90 % of control
O=P(OCc1ccccc1)(N(CCCl)CCCl)N1CCN(Cc2ccccc2)CC1 (stereo not given),T/C,"dose: 10.0 mg/kg/injection, schedule: Q01DX Z (ip), vehicle: saline",93 % of control
same,T/C,"dose: 30.0 mg/kg/injection, schedule: Q01DX Z (ip), vehicle: saline",90 % of control
same,T/C,"dose: 100.0 mg/kg/injection, schedule: Q01DX Z (ip), vehicle: saline",95 % of control
O=c1ccc2cc3oc(=O)ccc3cc2o1,T/C,"dose: 100.0 mg/kg/injection, schedule: Q01DX001 (ip), vehicle: saline with Tween-80",90 % of control
same,T/C,"dose: 200.0 mg/kg/injection, schedule: Q01DX001 (ip), vehicle: saline with Tween-80",97 % of control
same,T/C,"dose: 400.0 mg/kg/injection, schedule: Q01DX001 (ip), vehicle: saline with Tween-80",90 % of control
O=P(N=C=S)(N=C=S)N=C=S,T/C,"dose: 75.0 mg/kg/injection, schedule: Q01DX001 (ip), vehicle: other",114 % of control
CCCc1cc(CN2CCCCC2)c(O)c(CN2CCCCC2)c1O,T/C,[11],96 % of control
same,T/C,[12],95 % of control
same,T/C,[13],88 % of control
COc1cc(C=O)ccc1OC(=O)Nc1cccc(Cl)c1Cl,T/C,"dose: 100.0 mg/kg/injection, schedule: Q01DX009 (ip), vehicle: saline with Tween-80",90 % of control
same,T/C,"dose: 200.0 mg/kg/injection, schedule: Q01DX009 (ip), vehicle: saline with Tween-80",90 % of control
same,T/C,"dose: 400.0 mg/kg/injection, schedule: Q01DX009 (ip), vehicle: saline with Tween-80",92 % of control
BrCC12CCC1(CBr)COC2 (stereo not given),T/C,[11],99 % of control
same,T/C,[12],103 % of control
same,T/C,[13],101 % of control
O=C(CCCCCCC(=O)C[n+]1ccccc1CO)C[n+]1ccccc1CO,T/C,[14],101 % of control
O=Cc1cc(O)c(O)c(Br)c1,T/C,"dose: 75.0 mg/kg/injection, schedule: Q04DX003 (ip), vehicle: saline",100 % of control
same,T/C,"dose: 150.0 mg/kg/injection, schedule: Q04DX003 (ip), vehicle: saline",87 % of control
same,T/C,"dose: 300.0 mg/kg/injection, schedule: Q04DX003 (ip), vehicle: saline",98 % of control
CCCCN=C1NC(N)=NC(C)(C)N1,T/C,[15],98 % of control
same,T/C,[16],102 % of control
CCCCCCCCCCCCCCCCCCOC(C)OCCCCCCCCCCCCCCCCCC,T/C,[17],89 % of control
same,T/C,[18],89 % of control
same,T/C,[19],87 % of control
O=P(CCCl)(CCCl)CCCl,T/C,[20],87 % of control
same,T/C,[21],98 % of control
same,T/C,[3],87 % of control
same,T/C,[4],106 % of control
same,T/C,[5],90 % of control
same,T/C,[6],101 % of control
same,T/C,[7],101 % of control
[O-][N+](Cc1ccccc1)=Nc1ccccc1,T/C,[15],100 % of control
same,T/C,[16],96 % of control
same,T/C,"dose: 400.0 mg/kg/injection, schedule: Q01DX001 (ip), vehicle: Klucel (hydroxypropylcellulose) (HPC)",89 % of control
O=C(/C=C/c1ccc2c(c1)OCO2)c1cccc([N+](=O)[O-])c1,T/C,[8],93 % of control
same,T/C,[9],104 % of control
same,T/C,[10],100 % of control
O=C(Nc1ccc(C2=NCCN2)c(Cl)c1)c1cccc(C(=O)Nc2ccc(C3=NCCN3)c(Cl)c2)c1,T/C,[22],93 % of control
same,T/C,[23],86 % of control
CNC(=O)Oc1cccc(C=O)c1,T/C,"dose: 100.0 mg/kg/injection, schedule: Q01DX001 (ip), vehicle: other",102 % of control
same,T/C,"dose: 200.0 mg/kg/injection, schedule: Q01DX001 (ip), vehicle: other",117 % of control
same,T/C,"dose: 400.0 mg/kg/injection, schedule: Q01DX001 (ip), vehicle: other",102 % of control
C=CCCCCn1c2ccccc2c2c(C)c3cnccc3c(C)c21,T/C,[17],91 % of control
same,T/C,[18],91 % of control
same,T/C,[19],92 % of control
Cc1ccc[n+](Cc2ccccc2)c1,T/C,[14],98 % of control
same,T/C,"dose: 25.0 mg/kg/injection, schedule: Q04DX003 (ip), vehicle: saline",101 % of control
same,T/C,[21],97 % of control
CCOC(=O)CNc1cc(N)ncn1,T/C,[20],105 % of control
same,T/C,[3],112 % of control
S=P(NCCCCCCCCNP(=S)(N1CC1)N1CC1)(N1CC1)N1CC1,T/C,[24],102 % of control
same,T/C,[25],119 % of control
same,T/C,[26],107 % of control
C=CC(=O)[O][Pb]([CH2]C)([CH2]C)[CH2]C,T/C,"dose: 12.5 mg/kg/injection, schedule: Q04DX002 (ip), vehicle: Klucel (hydroxypropylcellulose) (HPC)",86 % of control
O=C(OC(c1ccccc1)c1ccccc1)C(CSC(c1ccccc1)(c1ccccc1)c1ccccc1)NC(c1ccccc1)(c1ccccc1)c1ccccc1 (stereo not given),T/C,[27],91 % of control
same,T/C,"dose: 200.0 mg/kg/injection, schedule: Q04DX003 (ip), vehicle: Klucel (hydroxypropylcellulose) (HPC)",92 % of control
CCNc1nc2c(N)ncnc2n1C1CC(O)C(CO)O1 (stereo not given),T/C,[24],96 % of control
same,T/C,[25],98 % of control
same,T/C,[26],93 % of control
O=P(N1CC1)(N1CC1)C12CC3CC(CC(C3)C1)C2,T/C,[1],170 % of control
same,T/C,[2],243 % of control
O=C(Nc1ccc(C2=NC3CCCCC3N2)cc1)c1ccc(C(=O)Nc2ccc(C3=NC4CCCCC4N3)cc2)cc1 (stereo not given),T/C,[22],96 % of control
same,T/C,[23],92 % of control
same,T/C,"dose: 60.0 mg/kg/injection, schedule: Q01DX Z (ip), vehicle: carboxymethylcellulose (CMC)",96 % of control
same,T/C,"dose: 120.0 mg/kg/injection, schedule: Q01DX Z (ip), vehicle: carboxymethylcellulose (CMC)",103 % of control
O=C(/C=C(\CN1CCCCC1)c1ccccc1)c1ccccc1,T/C,[27],96 % of control
same,T/C,"dose: 400.0 mg/kg/injection, schedule: Q04DX003 (ip), vehicle: Klucel (hydroxypropylcellulose) (HPC)",96 % of control
CCCCCCCCCCCCSc1nccnc1C,T/C,"dose: 50.0 mg/kg/injection, schedule: Q01DX009 (ip), vehicle: Klucel (hydroxypropylcellulose) (HPC)",113 % of control
same,T/C,"dose: 100.0 mg/kg/injection, schedule: Q01DX009 (ip), vehicle: Klucel (hydroxypropylcellulose) (HPC)",106 % of control
same,T/C,"dose: 200.0 mg/kg/injection, schedule: Q01DX009 (ip), vehicle: Klucel (hydroxypropylcellulose) (HPC)",92 % of control

# Reference: PubChem BioAssay AID248 (DTP/NCI, 2004)
